The source of these data is PubChem BioAssay (NCI).

Common to all, as to assay: NCI tumour cell line growth inhibition, 48 h
Test [1] concerns MALME-3M melanoma.
The test system of test [2] is LOX IMVI melanoma.
The test system of test [3] is SF-295 CNS.
Test [4] concerns A549 NSCLC.
Test [5] concerns SN12C renal.
Test [6] concerns IGROV1 ovarian.
Test [7] has as its system MDA-MB-435.
Test [8] relates to UACC-257 melanoma.
The subject of test [9] is OVCAR-3 ovarian.
Test [10] concerns SF-268 CNS.

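The compound was tested at five concentrations on cells cultured in 96-well plates, with a 48-hour exposure period. Here, GI50 denotes the concentration required for 50% inhibition of growth. Definition used: TGI = concentration required for complete inhibition of growth.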

`Nc1ccccc1C#C/C=C\C#Cc1ccccc1F`: the GI50 in test [1] is 2.62 µM; in test [2], 4.07 µM; in [3], 3.9 µM; in test [4] it was 10 µM; in test [5], 7.37 µM; in test [6] it was 5.34 µM. The GI50 in test [7] is 2.05 µM; in test [8], 15.7 µM; in test [9], 2.84 µM; in [10], 4.23 µM. Also, the TGI turned out to be 13.9 µM in [1]; 14.2 µM in test [2]; 16.6 µM in test [3]; 95.8 µM in test [4]; 20.9 µM in [5]; 28.8 µM in [6]. Further, the TGI was 4.44 µM in [7], 47.5 µM in [8], 14.7 µM in test [9] and 23.3 µM in [10].
Turning to `Cn1c2ccccc2c2[nH]c3ccccc3c(=O)c21`, the TGI in test [1], in test [2], in test [3], in [4], in test [5] and in [6] was above 100 µM in each case. The TGI in [7], in [8], in [9] and in test [10] was above 100 µM in each case.
Regarding `CNc1ncc2cc(Oc3ccc(F)cc3F)c(=O)n(C)c2n1`, the GI50 in test [1], in test [2], in test [3], in test [4], in test [5] and in test [6] was above 25 µM in each case. Also, the GI50 in [7], in [8], in test [9] and in test [10] was above 25 µM in each case. For the same molecule, the TGI in [1], in test [2], in test [3], in test [4], in test [5] and in test [6] was above 25 µM each time. The TGI in test [7], in [8], in test [9] and in test [10] was above 25 µM in each case.
As to `Nc1cc(-c2ccccc2)n(C(=O)Nc2ccc(Oc3ccccc3)cc2)n1`, the GI50 in test [1] is above 100 µM; in test [2], above 100 µM; in test [3], 40.2 µM; in [4], 27.8 µM; in [5], 80.3 µM; in [6], 36 µM. Also, the GI50 in test [7] was above 100 µM; in [8], 84.5 µM; in test [9], 31.3 µM; in test [10] it was 30.8 µM. Also, the TGI in [1], in test [2], in [3], in [4], in test [5] and in [6] was above 100 µM each time. Further, the TGI in test [7], in [8], in [9] and in [10] was above 100 µM in each case.
For `CNC(=O)c1cncc(/C=C/c2c(Cl)cccc2Cl)c1`, the GI50 was 12.9 µM in test [1]; above 19.6 µM in [2]; above 12.8 µM in test [3]; above 25 µM in [4]; above 21 µM in test [5]; above 17.9 µM in test [6]. Also, the GI50 is 6.88 µM in [7], 24.7 µM in test [8], 20.9 µM in [9] and 22.7 µM in test [10]. Further, the TGI in [1], in [2], in test [3], in test [4], in [5] and in test [6] was above 25 µM throughout. For the same molecule, the TGI in [7], in test [8], in test [9] and in test [10] was above 25 µM each time.
With `O=C(NN1C(=O)CSC12CCC(c1ccccc1)CC2)c1[nH]c2ccc(F)cc2c1-c1ccccc1` (stereo not given), the GI50 was 16.2 µM in [1]; 17.1 µM in test [2]; 22 µM in test [3]; 15.7 µM in test [4]; 17.6 µM in test [5]; 13 µM in test [6]. Also, the GI50 in test [7] is 18.8 µM; in [8] it was 19.3 µM; in [9] it was 17.1 µM; in [10] it was 20 µM. The TGI amounted to 30.9 µM in test [1]; 30.8 µM in [2]; 41.6 µM in test [3]; 30.8 µM in test [4]; 31.8 µM in [5]; 25.7 µM in test [6]. Moreover, the TGI was 36.7 µM in test [7], 35.6 µM in [8], 31.5 µM in [9] and 48.4 µM in test [10].
